Laboratory results as given in publication PMC3242765, “Inhibitors of Alphavirus Entry and Replication Identified with a Stable Chikungunya Replicon Cell Line and Virus-Based Assays” (PLoS ONE, 2011).
Structures can show the parent of a compound that is named as a salt.

Assays:
CHIKV replicon = experiment: microbe, parasite or virus in culture; format: cell-based, Chikungunya virus (CHIKV)

Compound	CHIKV replicon % left (CHIKV replicon) [%]	SFV replication % left (surviving fraction, remaining percentage of SFV replication) (SFV-Rluc) [%]
COc1ccc([C@@H]2CC(=O)c3c(O)cc(O[C@@H]4O[C@H](CO[C@@H]5O[C@@H](C)[C@H](O)[C@@H](O)[C@H]5O)[C@@H](O)[C@H](O)[C@H]4O)cc3O2)cc1O [Hesperidin]	102.2	77.7
CC(C)(C)NC[C@H](O)COc1nsnc1N1CCOCC1 [Timolol maleate]	100.6	129.1
Cc1nc(NS(=O)(=O)c2ccc(N)cc2)oc1C [Sulfamoxole]	80.2	83.0
COc1ccccc1OCC(O)CO (stereo not shown) [Guaifenesin]	82.7	124.5
CC(=O)N(c1onc(C)c1C)S(=O)(=O)c1ccc(N)cc1 [Acetylsulfisoxazole]	82.1	40.4
Cc1noc(NS(=O)(=O)c2ccc(N)cc2)c1C [Sulfisoxazole]	104.5	91.4
CC(CN1c2ccccc2Sc2ccccc21)[N+](C)(C)CCO (stereo not shown) [N-Hydroxyethylpromethazine chloride]	85.9	102.2
Oc1cccc(O)c1 [Resorcin]	72.2	83.0
CNC[C@H](O)c1cccc(O)c1.Cl [L-Phenylephrine hydrochloride]	104.1	85.1
CCCCOc1cc(C(=O)NCCN(CC)CC)c2ccccc2n1 [Dibucaine hydrochloride]	100.5	77.8
O=C(O)c1ccccc1O [Salicylic acid]	78.2	69.1
O=C(O)c1cc2cc(Br)cc(Br)c2oc1=O [6,8-Dibromocoumarin carboxylic acid]	100.1	67.4
Nc1nc(N)c2nc(-c3ccccc3)c(N)nc2n1 [Triamterene]	71.2	93.0
CCCCNC(=O)NS(=O)(=O)c1ccc(C)cc1 [Tolbutamide]	100.9	80.2
O=C(O)c1cc(O)ccc1O [2,5-Dihydroxybenzoic acid]	83.7	127.8
CCOc1ccc(NC(N)=O)cc1 [Dulcin [p-phenetylurea]]	70.2	103.3
COc1cc(C(=O)O)ccc1O [Vanillic acid]	44.3	53.4
CC(C)NCC(O)c1ccc2ccccc2c1 (stereo not shown) [Pronethalol]	29.9	62.9
CC[C@@]1(O)C(=O)OCc2c1cc1n(c2=O)Cc2cc3ccccc3nc2-1 [Camptothecin]	100.4	87.7

Compound	CHIKV replicon % left (CHIKV replicon) [%]	SFV replication % left (surviving fraction, remaining percentage of SFV replication) (SFV-Rluc) [%]
CC(C)(C)NCC(O)c1cc(O)cc(O)c1.CC(C)(C)NCC(O)c1cc(O)cc(O)c1.O=S(=O)(O)O (stereo not shown) [Terbutaline hemisulfate salt]	87.2	97.5
CC(=O)Nc1ccc(S(N)(=O)=O)cc1 [N-Acetylsulfanilamide]	104.1	63.2
Cc1c(Cl)cccc1Nc1ccccc1C(=O)O [Tolfenamic acid]	108.2	80.1
Cc1ncc(CO)c(CO)c1O [Pyridoxine hydrochloride]	71.1	100.9
COc1cc(/C=C/C(=O)O)ccc1O [Ferulic acid]	55.8	63.4
O=c1c(O)c(-c2ccc(O)c(O)c2)oc2cc(O)cc(O)c12 [Quercetin]	110.2	125.8
Cc1c(C)c2c(c(C)c1O)CCC(C)(C(=O)O)O2 (stereo not shown)	101.5	76.9
CC(Cc1ccc2c(c1)OCO2)NCC(O)c1ccc(O)c(O)c1 (stereo not shown) [Protokylol hydrochloride]	85.4	128.4
O=c1cc(-c2ccccc2)oc2c1ccc1ccccc12 [Alphanaphthoflavone]	30.8	14.6
O=C(O)c1ccccc1 [Benzoic acid]	99.1	71.6
NC(=O)NS(=O)(=O)c1ccc(N)cc1.O [Sulfaninyl urea hydrate]	92.8	120.2
Tannic acid	82.0	41.8
CS(=O)(=O)OCCCCOS(C)(=O)=O [Busulfan]	100.5	51.8
C=CCC1(CC=C)C(=O)NC(=O)NC1=O [Allobarbital]	121.1	45.6
O=C1Nc2ccc(Cl)cc2C(c2ccccc2Cl)=NC1O (stereo not shown) [Lorazepam]	104.9	98.2
C=CC/C(=N/OS(=O)(=O)[O-])S[C@@H]1O[C@H](CO)[C@@H](O)[C@H](O)[C@H]1O.O.[K+] [Sinigrin monohydrate]	99.2	47.6
Oc1cc(O)c2c(c1)O[C@H](c1ccc(O)c(O)c1)[C@H](O)[C@H]2c1c(O)cc(O)c2c1O[C@H](c1ccc(O)c(O)c1)[C@@H](O)C2 [Procyanidin B1]	104.7	128.1
CCCCC1C(=O)N(c2ccccc2)N(c2ccccc2)C1=O [Phenylbutazone]	100.5	96.7
CN1CCCCC1CCN1c2ccccc2Sc2ccc([S+](C)[O-])cc21 (stereo not shown) [Mesoridazine besylate]	100.5	93.8

Compound	CHIKV replicon % left (CHIKV replicon) [%]	SFV replication % left (surviving fraction, remaining percentage of SFV replication) (SFV-Rluc) [%]
Oc1ccc(C(O)CNCCCCCCNCC(O)c2ccc(O)c(O)c2)cc1O (stereo not shown) [Hexoprenaline]	79.1	124.9
COC(=O)c1cc(O)c(O)c(O)c1 [Methyl gallate]	100.7	67.8
O=C1Nc2ccc(Cl)cc2C(c2ccccc2)=NC1O (stereo not shown) [Oxazepam]	80.3	79.1
O=C(O)/C=C/c1ccc(O)c(O)c1 [Caffeic acid]	85.2	98.7
CNC(C)(C)Cc1ccccc1 [Mephentermine sulfate]	70.1	81.8
CC(=O)Nc1ccccc1 [Acetanilide]	92.2	57.3
C=CC[C@]1(O)CC[C@H]2[C@@H]3CCC4=CCCC[C@@H]4[C@H]3CC[C@@]21C	49.4	37.2
C[C@]12C=CC(=O)C=C1CC[C@@H]1[C@@H]2C(=O)C[C@@]2(C)[C@H]1CC[C@]2(O)C(=O)CO [Prednisone]	54.4	85.0
Cc1ccc(C(=O)NS(=O)(=O)c2ccc(N)cc2)cc1C [N-Sulfanilyl-3,4-xylamide]	100.7	72.0
CC(O)Cn1cnc2c1c(=O)n(C)c(=O)n2C (stereo not drawn) [7-(β-Hydroxypropyl)theophylline]	70.9	125.5
Oc1cc(O)c2c(c1)O[C@H](c1ccc(O)c(O)c1)[C@H](O)[C@H]2c1c(O)cc(O)c2c1O[C@H](c1ccc(O)c(O)c1)[C@H](O)C2 [Procyanidin B2]	101.9	93.7
CC(=O)Nc1ccc(O)cc1 [Acetaminophen [paracetamol]]	85.2	63.5
CCC(NC(C)C)C(O)c1ccc(O)c(O)c1 (stereo not shown) [Isoetharine]	100.4	90.7
COc1ccc2ccc(=O)oc2c1O [Daphnetin-7-methylether]	89.9	105.6
[H]/N=C(/N)NS(=O)(=O)c1ccc(N)cc1 [Sulfaguanidine]	62.1	63.5
CCC1(c2ccccc2)C(=O)NCNC1=O [Primidone]	41.6	127.1
CN(C)CCOC(c1ccccc1)c1ccccc1 [Diphenhydramine hydrochloride]	194.3	41.0
COc1cc(-c2oc3cc(O)cc(O)c3c(=O)c2O)ccc1O [Isorhamnetin]	19.3	28.9
